According to patent publication US20260041093A1, “Ionic Derivatives Of Aromatic Carboxylic Acid For Use As Plant Stimulants, Method For Stimulating Plants And Use Of These Derivatives For Manufacturing Compositions For Stimulating Plants” (FUNDACJA UNIWERSYTETU IM. ADAMA MICKIEWICZA W POZNANIU, priority 2022, published 2026):
Read-outs that look alike come from different tables or passages of the source.

Key:
bell pepper = experiment: Bell pepper seedlings in pots sprayed: height, fresh and dry weight (Example 5); format: in vivo
Method: Pepper seedlings were planted into pots with peat substrate (P9 pots having 0,5 l). Pots were placed in greenhouse and cultivated for a 1 month. […] Plants treated with water only were the untreated control. During the course of the experiment, the height of the plants was measured, and at the end the fresh and dry weight of the aboveground part was evaluated.

[1] = tested on: apple trees (M9 rootstocks); settings: 4 sprays at 14-day intervals; 3-chlorosalicylate 100 mg/L, benzothiadiazole salt 25 mg/L
Source text: Flowers were counted during the experiment, and the number of shoots and leaves in the fall.

winter wheat = tested on: winter wheat
Method: The experiment was established using the long strip method, in four repetitions Gross area of each plot was 48 m^2, while the harvest area was 23.25 m^2 net. Following variants of treatment were tested: • 1. Control—no stimulant application, standard fungicide programme • 2. Stimulant application at BBCH 32, standard fungicide programme • 3. Stimulant application at BBCH 32, no fungicide application • 4. Stimulant application at BBCH 55 and 10-12 days later, standard fungicide programme • 5. […] In this experiment, standard NPK fertilization was applied, using both bulk and liquid fertilizers.
The experiment was established using the long strip method, in four repetitions Gross area of each plot was 48 m2, while the harvest area was 23.25 m2 net. Following variants of treatment were tested: • 1. Control—no stimulant application, standard fungicide programme, • 2. Stimulant application at BBCH 32, standard fungicide programme • 3. Stimulant application at BBCH 32, no fungicide application • 4. Stimulant application at BBCH 55 and 10-12 days later, standard fungicide programme • 5. […] In the experiment, uniform NPK fertilization was applied, using both bulk and liquid fertilizers.

lettuce = tested on: lettuce
Source text: The purpose of the study was to determine the effect of foliar spraying with test solutions on lettuce (Lactuca sativa L. ‘Zeralda’) plants. The plants were sprayed 7 and 14 days after transplanting to a permanent site. […] After another 7 days, drought stress was induced (plants in the selected combinations were not watered until symptoms of leaf wilting appeared), followed by proper watering of the plants again. Control plants were watered in turn to a constant weight. After 3 days after re-watering, chlorophyll fluorescence was measured (OJIP test, methodology described, among others, in Kalaji H. M., 2011. Impact of abiotic stress factors on chlorophyll fluorescence in plants of selected barley cultivars Hordeum vulgare L. SGGW Publishing House, Warsaw [https://badanieroslin.pl/wp-content/uploads/2018/11/Oddzialywanie-abiotycznych-czynnikow. . . ..pdf]) and the condition of the plants was assessed.
The measurement was carried out after inducing drought stress, followed by re-watering the plants to a constant weight. […] This parameter is lowered by stresses.

[2] = 3-chlorosalicylate 80 mg/L, benzothiadiazole salt 30 mg/L
[3] = BBCH 32, standard fungicide protection, 80 mg/L, benzothiadiazole salt 30 mg/L
[4] = BBCH 32, stimulant only, 80 mg/L, benzothiadiazole salt 30 mg/L
[5] = BBCH 55, standard fungicide protection, 80 mg/L, benzothiadiazole salt 30 mg/L
[6] = BBCH 55, without fungicide, 80 mg/L, benzothiadiazole salt 30 mg/L
[7] = first sampling date, 80 mg/L, benzothiadiazole salt 30 mg/L
[8] = last sampling date, late milk, 80 mg/L, benzothiadiazole salt 30 mg/L
[9] = Control (watered), double application, 3-chlorosalicylate 100 mg/L, benzothiadiazole salt 50 mg/L
[10] = Control (watered), single application, 50 mg/L
[11] = Drought, double application, 3-chlorosalicylate 100 mg/L, benzothiadiazole salt 50 mg/L
[12] = Drought, single application, 50 mg/L
[13] = double application, 3-chlorosalicylate 100 mg/L, benzothiadiazole salt 50 mg/L

## C[N+](C)(C)CCO.O=C([O-])c1cccc2nnsc12
Bell pepper; 20 mg/L
  Average dry mass: 13.3 c g
  Average fresh mass: 94.6 c g
  Average plant height, initial height, before first treatment: 43.5 b mm
  Average plant height, second treatment: 150.8 b mm
  Average plant height, third treatment: 226.6 c mm
  Plant height increase: 183.1 c mm
Bell pepper; [2]
  Average dry mass: 15.6 g·days
  Average fresh mass: 115.5 g·days
  Average plant height, initial height, before first treatment: 39.9 a mm
  Average plant height, second treatment: 142.9 a mm
  Average plant height, third treatment: 270.8 d mm
  Plant height increase: 230.9 d mm
[1]
  Average number of flowers per plant: 31.1 b
  Average number of leaves per plant: 47.1 b
  Average number of shoots per plant: 6.5 b
Winter wheat; [3]
  increase in calcium uptake: 7%
  increase in gluten content of wheat grain: 9%
  increase in magnesium uptake: 8%
  increase in nitrogen uptake: 7%
  increase in phosphorus uptake: 9%
  increase in potassium uptake: 7%
  increase in protein content of wheat grain: 12%
Winter wheat; [4]
  increase in calcium uptake: 7%
  increase in gluten content of wheat grain: 8%
  increase in magnesium uptake: 9%
  increase in nitrogen uptake: 8%
  increase in phosphorus uptake: 9%
  increase in potassium uptake: 8%
  increase in protein content of wheat grain: 11%
Winter wheat; [5]
  increase in calcium uptake: 12%
  increase in gluten content of wheat grain: 10%
  increase in magnesium uptake: 11%
  increase in nitrogen uptake: 12%
  increase in phosphorus uptake: 11%
  increase in potassium uptake: 7%
  increase in protein content of wheat grain: 12%
Winter wheat; [6]
  increase in calcium uptake: 8%
  increase in gluten content of wheat grain: 9%
  increase in magnesium uptake: 10%
  increase in nitrogen uptake: 15%
  increase in phosphorus uptake: 11%
  increase in potassium uptake: 6%
  increase in protein content of wheat grain: 11%
Winter wheat; first sampling date (beginning of shooting), first of two sprayed objects (with / without fungicide, respectively), 80 mg/L, benzothiadiazole salt 30 mg/L
  fresh weight of aboveground part higher than control: 11%
Winter wheat; [7]
  dry root mass higher than control: 14%
  fresh root mass higher than control: 12%
Winter wheat; first sampling date, first of two sprayed objects, 80 mg/L, benzothiadiazole salt 30 mg/L
  dry weight of aboveground part higher than control: 10%
Winter wheat; first sampling date, second of two sprayed objects (with / without fungicide, respectively), 80 mg/L, benzothiadiazole salt 30 mg/L
  fresh weight of aboveground part higher than control: 14%
Winter wheat; first sampling date, second of two sprayed objects, 80 mg/L, benzothiadiazole salt 30 mg/L
  dry weight of aboveground part higher than control: 14%
Winter wheat; first term, stimulant at BBCH 32, with or without fungicide
  SPAD chlorophyll readings versus control: significantly higher
Winter wheat; [8]
  more aboveground biomass, BBCH 55 treatment compared to control: 30%
  more aboveground biomass, BBCH 55 treatment compared to plants sprayed at an earlier stage: 13%
  more root biomass, BBCH 55 treatment compared to control: 21%
  more root biomass, BBCH 55 treatment compared to plants sprayed at an earlier stage: 14%
Winter wheat; second sampling date
  fresh and dry root weight versus other experimental facilities: comparable
Winter wheat; second sampling date, end of heading
  fresh and dry matter yields versus other experimental facilities: comparable
Winter wheat; second term, stimulant at BBCH 32 without fungicide versus other objects
  SPAD chlorophyll readings: highest
Winter wheat; third term, with or without fungicide
  chlorophyll content of wheat leaves versus control: significantly higher
lettuce; [9]
  ABS/RC: 1.46 b
  DIo/RC: 0.28 b
  ETo/RC: 0.93 ab
  F0: 7100 b
  FM: 45265 b
  FM/F0: 6.52 ab
  Fv: 38164 b
  Fv/F0: 5.52 abc
  Fv/FM: 0.85 abc
  Pi_Abs (PSII functioning index calculated on the basis of energy absorption): 10.33 ab
  TRo/RC: 1.74 b
lettuce; [10]
  ABS/RC: 1.45 b
  DIo/RC: 0.28 b
  ETo/RC: 0.87 ab
  F0: 6762 b
  FM: 41874 b
  FM/F0: 6.19 abc
  Fv: 35112 b
  Fv/F0: 5.19 abc
  Fv/FM: 0.84 abc
  Pi_Abs (PSII functioning index calculated on the basis of energy absorption): 4.47 a
  TRo/RC: 1.74 b
lettuce; [11]
  ABS/RC: 1.14 a
  DIo/RC: 0.20 a
  ETo/RC: 0.84 ab
  F0: 4965 a
  FM: 34715 a
  FM/F0: 6.99 bc
  Fv: 29750 b
  Fv/F0: 5.99 ab
  Fv/FM: 0.86 c
  Pi_Abs (PSII functioning index calculated on the basis of energy absorption): 12.61 days
  TRo/RC: 1.34 a
lettuce; [12]
  ABS/RC: 1.12 a
  DIo/RC: 0.24 a
  ETo/RC: 0.75 a
  F0: 5675 a
  FM: 32147 a
  FM/F0: 5.67 a
  Fv: 26472 a
  Fv/F0: 4.67 a
  Fv/FM: 0.83 a
  Pi_Abs (PSII functioning index calculated on the basis of energy absorption): 7.47 b
  TRo/RC: 1.36 a
lettuce; [13]
  % dry matter (leaf), Average: 4.67 b %
  % dry matter (leaf), Drought: 3.61 a %
  % dry matter (leaf), Watered: 5.73 c %
  Head and root weight, Average: 69.4 a g/plant
  Head and root weight, Drought: 70.6 ab g/plant
  Head and root weight, Watered: 69.2 a g/plant
  Head weight, Average: 53.4 a g/plant
  Head weight, Drought: 51.6 ab g/plant
  Head weight, Watered: 51.6 b g/plant
  RWC (relative water content), Watered: 74.3 b %
  RWC, Average: 75.0 a %
  RWC, Drought: 64.0 a %
lettuce; single application, 50 mg/L
  % dry matter (leaf), Average: 3.75 b %
  % dry matter (leaf), Drought: 3.59 b %
  % dry matter (leaf), Watered: 3.51 b %
  Head and root weight, Average: 84.6 b g/plant
  Head and root weight, Drought: 84.4 bc g/plant
  Head and root weight, Watered: 85.2 c g/plant
  Head weight, Average: 65.1 b g/plant
  Head weight, Drought: 62.5 c g/plant
  Head weight, Watered: 65.3 c g/plant
  RWC (relative water content), Watered: 77.1 b %
  RWC, Average: 74.5 a %
  RWC, Drought: 71.5 ab %
